Test results reported in ChEMBL document CHEMBL3259648, “Synthesis and in vitro evaluation of anti-inflammatory activity of ester and amine derivatives of indoline in RAW 264.7 and peritoneal macrophages” (Bioorg Med Chem Lett, 2014).
Active and inactive are the calls of the source. The rule behind the calls is not given here.

How the values were obtained:
[1] = test system: Peritoneal macrophage cell; experiment: Antiinflammatory activity in C57bl/6 mouse peritoneal macrophages assessed as reduction in LPS-induced IL-6 production at >=10 nM treated for 30 mins prior to LPS challenge measured after 24 hrs by ELISA; type: functional, cell-based
[2] = Cytotoxicity against C57bl/6 mouse peritoneal macrophages assessed as cell viability at 10 pM to 10 uM by MTT assay; type: cell-based; details: peritoneal macrophage cell
[3] = target: Cholinesterase (Equus caballus, UniProt P81908); experiment: Inhibition of BuChE in equine serum using butylthiocholine iodide as substrate by Ellman's method
[4] = target: T1, Acetylcholinesterase (Bos taurus, UniProt P23795); experiment: Inhibition of AChE in bovine erythrocytes using acetylthiocholine iodide as substrate by Ellman's method
T1 sequence (P23795 whole entry): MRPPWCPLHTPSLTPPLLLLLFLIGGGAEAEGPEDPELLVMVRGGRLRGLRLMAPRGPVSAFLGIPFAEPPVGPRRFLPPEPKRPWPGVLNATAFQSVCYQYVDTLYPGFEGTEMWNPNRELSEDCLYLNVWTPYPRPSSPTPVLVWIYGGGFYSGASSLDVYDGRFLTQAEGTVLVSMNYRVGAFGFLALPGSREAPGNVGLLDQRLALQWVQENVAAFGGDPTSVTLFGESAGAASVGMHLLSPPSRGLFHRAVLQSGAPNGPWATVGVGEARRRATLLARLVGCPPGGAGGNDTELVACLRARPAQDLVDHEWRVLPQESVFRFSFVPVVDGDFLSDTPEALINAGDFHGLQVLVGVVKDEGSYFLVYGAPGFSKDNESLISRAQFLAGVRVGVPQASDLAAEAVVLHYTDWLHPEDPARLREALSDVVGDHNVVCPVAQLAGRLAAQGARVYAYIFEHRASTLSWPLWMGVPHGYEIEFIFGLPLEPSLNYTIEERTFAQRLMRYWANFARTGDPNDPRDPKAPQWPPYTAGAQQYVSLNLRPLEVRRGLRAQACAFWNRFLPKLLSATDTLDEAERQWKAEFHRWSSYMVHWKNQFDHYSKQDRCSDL

[5] = test system: RAW264.7; experiment: Antiinflammatory activity in mouse RAW264.7 cells assessed as reduction in LPS-induced NaNO2 release at >=10 pM treated for 30 mins prior to LPS challenge measured after 24 hrs by griess reaction assay; type: functional, cell-based
[6] = test system: RAW264.7; experiment: Antiinflammatory activity in mouse RAW264.7 cells assessed as reduction in LPS-induced NaNO2 release at 10 pM treated for 30 mins prior to LPS challenge measured after 24 hrs by griess reaction assay relative to melatonin; type: functional
[7] = test system: Peritoneal macrophage cell; experiment: Antiinflammatory activity in C57bl/6 mouse peritoneal macrophages assessed as reduction in LPS-induced TNF-alpha production at >=10 pM treated for 30 mins prior to LPS challenge measured after 6 hrs by ELISA; type: functional, cell-based
[8] = test system: RAW264.7; experiment: Cytotoxicity against mouse RAW264.7 cells assessed as cell viability at 10 pM to 10 uM by MTT assay; type: cell-based
[9] = test system: RAW264.7; experiment: Antiinflammatory activity in mouse RAW264.7 cells assessed as reduction in LPS-induced NaNO2 release at 10 pM treated for 30 mins prior to LPS challenge measured after 24 hrs by griess reaction assay relative to budesonide; type: functional
[10] = test system: RAW264.7; experiment: Antiinflammatory activity in mouse RAW264.7 cells assessed as reduction in LPS-induced NaNO2 release at >=1 nM treated for 30 mins prior to LPS challenge measured after 24 hrs by griess reaction assay; type: functional, cell-based
[11] = test system: RAW264.7; experiment: Antiinflammatory activity in mouse RAW264.7 cells assessed as reduction in LPS-induced NaNO2 release at 1 nM treated for 30 mins prior to LPS challenge measured after 24 hrs by griess reaction assay relative to melatonin; type: functional
[12] = test system: RAW264.7; experiment: Antiinflammatory activity in mouse RAW264.7 cells assessed as reduction in LPS-induced NaNO2 release at 1 nM treated for 30 mins prior to LPS challenge measured after 24 hrs by griess reaction assay relative to budesonide; type: functional
[13] = test system: Peritoneal macrophage cell; experiment: Antiinflammatory activity in C57bl/6 mouse peritoneal macrophages assessed as reduction in LPS-induced IL-6 production at >=10 pM treated for 30 mins prior to LPS challenge measured after 24 hrs by ELISA; type: functional, cell-based
[14] = test system: Peritoneal macrophage cell; experiment: Antiinflammatory activity in C57bl/6 mouse peritoneal macrophages assessed as reduction in LPS-induced TNF-alpha production at >=1 pM treated for 30 mins prior to LPS challenge measured after 6 hrs by ELISA; type: functional, cell-based
[15] = target: MAP kinase p38 (Mus musculus) (UniProt P47811+O08911+Q9WUI1+Q9Z1B7); experiment: Inhibition of p38 phosphorylation in LPS-activated C57bl/6 mouse peritoneal macrophages at 0.1 nM treated for 30 mins prior to LPS challenge by immunoblot analysis
[16] = organism: Mus musculus; experiment: Inhibition of ERK phosphorylation in LPS-activated C57bl/6 mouse peritoneal macrophages at 0.1 nM treated for 30 mins prior to LPS challenge by immunoblot analysis
[17] = organism: Mus musculus; experiment: Inhibition of JNK phosphorylation in LPS-activated C57bl/6 mouse peritoneal macrophages at 0.1 nM treated for 30 mins prior to LPS challenge by immunoblot analysis
[18] = target: T2, Inhibitor of nuclear factor kappa-B kinase subunit alpha (Mus musculus) (UniProt Q60680); experiment: Inhibition of IkappaB alpha degradation in LPS-activated C57bl/6 mouse peritoneal macrophages at 0.1 nM treated for 30 mins prior to LPS challenge by immunoblot analysis
T2 sequence (whole entry): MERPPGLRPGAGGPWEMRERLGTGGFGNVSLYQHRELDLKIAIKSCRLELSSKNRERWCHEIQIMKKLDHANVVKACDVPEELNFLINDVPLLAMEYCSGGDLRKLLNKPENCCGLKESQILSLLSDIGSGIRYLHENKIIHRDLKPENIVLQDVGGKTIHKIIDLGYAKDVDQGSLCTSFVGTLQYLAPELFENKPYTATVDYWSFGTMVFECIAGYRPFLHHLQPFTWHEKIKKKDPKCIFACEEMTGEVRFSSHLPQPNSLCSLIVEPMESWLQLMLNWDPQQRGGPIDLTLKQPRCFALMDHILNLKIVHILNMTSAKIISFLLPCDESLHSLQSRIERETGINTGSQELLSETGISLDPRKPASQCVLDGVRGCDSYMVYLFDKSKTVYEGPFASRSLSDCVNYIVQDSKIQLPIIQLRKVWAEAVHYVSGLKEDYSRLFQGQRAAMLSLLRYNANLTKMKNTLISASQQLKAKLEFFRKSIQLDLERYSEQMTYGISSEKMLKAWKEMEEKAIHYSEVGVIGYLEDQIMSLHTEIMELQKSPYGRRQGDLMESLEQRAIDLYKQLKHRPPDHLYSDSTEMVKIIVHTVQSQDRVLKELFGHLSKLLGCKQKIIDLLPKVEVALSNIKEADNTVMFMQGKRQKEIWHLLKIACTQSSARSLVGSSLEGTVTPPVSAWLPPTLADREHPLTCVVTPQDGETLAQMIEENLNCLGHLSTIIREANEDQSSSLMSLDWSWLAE

[19] = test system: Peritoneal macrophage cell; experiment: Antiinflammatory activity in C57bl/6 mouse peritoneal macrophages assessed as reduction in LPS-induced TNF-alpha production at >=10 nM treated for 30 mins prior to LPS challenge measured after 6 hrs by ELISA; type: functional, cell-based
[20] = test system: Peritoneal macrophage cell; experiment: Antiinflammatory activity in C57bl/6 mouse peritoneal macrophages assessed as reduction in LPS-induced IL-6 production at >=1 nM treated for 30 mins prior to LPS challenge measured after 24 hrs by ELISA; type: functional, cell-based
[21] = test system: Peritoneal macrophage cell; experiment: Antiinflammatory activity in C57bl/6 mouse peritoneal macrophages assessed as reduction in LPS-induced TNF-alpha production at >=1 uM treated for 30 mins prior to LPS challenge measured after 6 hrs by ELISA; type: functional, cell-based

Sequence of Cholinesterase (P81908 whole entry): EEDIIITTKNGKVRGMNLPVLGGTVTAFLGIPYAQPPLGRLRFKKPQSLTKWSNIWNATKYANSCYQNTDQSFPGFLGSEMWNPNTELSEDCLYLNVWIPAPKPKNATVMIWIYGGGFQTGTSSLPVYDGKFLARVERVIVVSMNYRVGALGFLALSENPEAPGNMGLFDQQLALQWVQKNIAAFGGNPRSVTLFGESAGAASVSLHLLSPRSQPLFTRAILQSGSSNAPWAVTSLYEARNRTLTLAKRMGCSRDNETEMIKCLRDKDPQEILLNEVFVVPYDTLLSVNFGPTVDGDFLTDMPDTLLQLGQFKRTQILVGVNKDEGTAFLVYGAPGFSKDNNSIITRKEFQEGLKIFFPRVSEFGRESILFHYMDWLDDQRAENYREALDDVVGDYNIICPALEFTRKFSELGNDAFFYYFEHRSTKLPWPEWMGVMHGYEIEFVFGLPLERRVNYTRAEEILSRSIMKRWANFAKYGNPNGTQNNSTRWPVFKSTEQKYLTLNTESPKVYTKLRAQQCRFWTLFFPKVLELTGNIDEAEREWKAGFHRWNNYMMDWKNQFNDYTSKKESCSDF

Structure (SMILES)	inhibition [1]	Activity [2]	IC50 [3]	IC50 [4]	inhibition [5]	fold change (FC) [6]	inhibition [7]	Activity [8]	fold change (FC) [9]	inhibition [10]	fold change (FC) [11]	fold change (FC) [12]	inhibition [13]	inhibition [14]	further results
CCN(C)C(=O)Oc1cccc2c1C(CCN(C)C)CN2.Cl (stereo not given)	Active	Non-toxic	310 nM	1300 nM	Active	100	Active	Non-toxic	10	–	–	–	–	–	–
CCN(C)C(=O)Oc1cccc2c1C(CCCN)CN2.Cl (stereo not given)	–	Non-toxic	1200 nM	1800 nM	–	–	–	Non-toxic	–	Active	100	10	Active	Active	–
CCN(C)C(=O)Oc1cccc2c1C(CCC(=O)OC)CN2.Cl (stereo not given)	–	Non-toxic	300 nM	–	Active	100	–	Non-toxic	10	–	–	–	Active	Active	inhibition [15]: Active; inhibition [16]: inactive; inhibition [17]: inactive; inhibition [18]: Active
CCN(C)C(=O)Oc1cccc2c1CCN2CCC(=O)OC.Cl	Active	Non-toxic	700 nM	–	Active	100	–	Non-toxic	10	–	–	–	–	–	inhibition [19]: Active
CCN(C)C(=O)Oc1ccc2c(c1)NCC2CCCN.Cl (stereo not given)	–	Non-toxic	4700 nM	36000 nM	–	–	–	Non-toxic	–	Active	100	10	Active	Active	–
CCN(C)C(=O)Oc1ccc2c(c1)NCC2CCN(C)C.Cl (stereo not given)	Active	Non-toxic	2200 nM	21300 nM	–	–	Active	Non-toxic	–	Active	100	10	–	–	–
CCN(C)C(=O)Oc1ccc2c(c1)N(CCCN(C)C)CC2.Cl	Active	Non-toxic	4270 nM	48000 nM	–	–	Active	Non-toxic	–	Active	100	10	–	–	–
CCN(C)C(=O)Oc1cccc2c1C(CCN)CN2.Cl.Cl (stereo not given)	–	Non-toxic	200 nM	–	Active	100	–	Non-toxic	10	–	–	–	Active	Active	–
CCN(C)C(=O)Oc1ccc2c(c1)NCC2CCC(=O)OC.Cl (stereo not given)	–	Non-toxic	3900 nM	–	Active	100	–	Non-toxic	10	–	–	–	–	Active	inhibition [20]: Active
CCN(C)C(=O)Oc1cccc2c1CCN2CCCN(C)C.Cl	Active	Non-toxic	900 nM	3700 nM	–	–	Active	Non-toxic	–	Active	100	10	–	–	–
CCN(C)C(=O)Oc1ccc2c(c1)N(CCC(=O)OC)CC2.Cl	Active	Non-toxic	6780 nM	–	–	–	–	Non-toxic	–	–	–	–	–	–	inhibition [21]: Active
